Measurements reported in paper PMC5609566, “Elucidation of antimicrobial activity and mechanism of action by N-substituted carbazole derivatives” (Bioorganic & Medicinal Chemistry Letters, 2017).
≈ marks a conversion by molar mass, not a printed value.

What was measured:
C. albicans (ATCC 90028) = assay: Fungal growth inhibition, library hits; assay type: cell-based
Experimental: (§1) Compound hits from the library screening were evaluated against baker yeast S. cerevisiae and C. albicans (ATCC 90028). The minimum inhibitory concentration (MIC) was defined as the lowest concentration inhibiting visual growth of the microorganism and this was determined in triplicate. Standard errors were typically less than 5%. MICs for synthesized compounds were determined on the following fungal isolates: Saccharomyces cerevisiae (ATCC 9763), Candida albicans (SC5314), Candida krusei (ATCC 6258), Candida glabrata (ATCC 90030), Aspergillus flavus (ATCC MYA-1005) and Aspergillus fumigatus (ATCC 13073), which were purchased from American Type Culture Collection, and C. glabrata strain Cg003, which was kindly provided by Julius Subik, Comenius University in Bratislava, Slovak Republic. Cg003 is a clinical isolate, characterized to be resistant to fluconazole and itraconazole due to overexpression of the multidrug resistance efflux pumps Cdr1p and Cdr2p^5. The fungal growth assay was performed as described in Kjellerup et al., 2017^6.

S. cerevisiae [1] = assay: Fungal growth inhibition, library hits; assay type: cell-based; details: Saccharomyces cerevisiae, baker yeast
Experimental: as §1

S. cerevisiae H^+-ATPase = molecular target: T1, S. cerevisiae H^+-ATPase (Saccharomyces cerevisiae, UniProt P05030); assay: Colorimetric ATPase assay (ATP hydrolysis), S. cerevisiae plasma membranes; assay type: biochemical; details: initial hit compounds, Table 1
T1 construct: transformed with the full-length cDNA of the S. cerevisiae plasma membrane H^+-ATPase isoform PMA1; made in house; host or cells: S. cerevisiae RS72
Excerpt: To investigate the H^+-ATPase inhibitory effect of the compounds we isolated plasma membranes containing H^+-ATPase from S. cerevisiae and C. albicans cells.[15] Plasma membranes isolated from pig kidney as well as endoplasmic reticulum membranes from rabbit hind leg muscle were used to counter-screen compounds for activity against mammalian Na^+,K^+-ATPase and Ca^2+-ATPase, respectively. Prior to their use, fungal plasma membrane batches were validated by determining the maximum ATP hydrolysis activity, the pH optimum of the ATPase activity, and the sensitivity to inhibition by orthovanadate. ATPase activity was determined by a colorimetric assay that measures the amount of inorganic phosphate liberated over time, as described in Kjellerup et al., 2017.[15] Table 2, Table 3, Table 4 list the IC50 values obtained by measuring the concentration dependence of the ATPase activity for the fifteen carbazole compounds with each of the four membrane preparations.
Pma1-containing plasma membranes were prepared from S. cerevisiae RS72 yeast cells that had been transformed with the full-length cDNA of the S. cerevisiae plasma membrane H^+-ATPase isoform PMA1 under control of the PMA1 promoter, using the same procedure as described in Kongstad et al., 2014^1. For the preparation of C. albicans membranes, a 100 ml overnight culture grown in YPD (10 g/L yeast extract (BD, Sparks, MD), 20 g/L Bacto peptone (BD), 20 g/L D-(+)-glucose) was transferred to 1 L YPD and grown for a further 7 h at RT with agitation (150 rpm), followed by cell harvesting and subsequent membrane preparation using the same procedure as described in Kongstad et al., 2014^1. […] Rabbit sarcoplasmic reticulum membranes containing Sarco/Endoplasmic Reticulum Ca^2+ ATPase (SERCA) were kindly provided by Dr. Claus E. Olesen and Dr. Jesper V. Møller, Aarhus University and prepared as described in Andersen et al., 1985^2. Pig kidney Na^+,K^+-ATPase was kindly provided by Dr. Natalya Fedosova, Aarhus University and prepared as described in Klodos et al., 2002^3.
The compound libraries were purchased from Enamine Ltd, Ukraine and Chembridge Corp, USA. ATPase activity was determined by measuring the amount of liberated phosphate from ATP hydrolysis. […] Reactions were initiated by the addition of Na-ATP to a final concentration of 2.5 mM (Pma1 and Na^+,K^+-ATPase) or 5 mM (SERCA), followed by 30 minutes incubation at 30 °C. The amount of liberated phosphate was determined colorimetrically after addition of STOP solution (mixture of L-ascorbic acid, ammonium heptamolybdate tetrahydrate, and HCl to give final concentrations of 65 mM, 2.2 mM, and 189 mM, respectively) with 5 minutes incubation at room temperature (RT) followed by addition of arsenite solution (mixture of NaAsO2, sodium citrate dihydrate, and acetic acid to give final concentrations of 3.1 mM, 28 mM, and 141 mM, respectively). Absorption was measured at 860 nm after an additional 30 minutes incubation at RT.

C. albicans = assay: Extracellular acidification assay; assay type: cell-based; details: Candida albicans, mean ± SEM n = 3
Excerpt: (§2) It was subsequently evaluated whether or not the carbazoles were able to prevent extracellular acidification of the surrounding media by blocking the pumping activity of the H^+-ATPase within fungal cells.[15] […] The H^+-ATPase requires ATP to transport protons out of fungal cells. Consequently, a decrease in intracellular ATP (iATP) levels will indirectly affect H^+-ATPase activity. […] In all cases, iATP levels were […] in C. albicans cells exposed to carbazoles compared to the untreated control. […] This implies that the carbazoles need to pass the fungal membrane to inhibit the H^+-ATPase and 7, 18 and 19 may have reduced membrane permeability.
(§3) The ability of S. cerevisiae and C. albicans to acidify the media upon glucose addition was evaluated using the pH sensor dextran (40,000MW)-fluorescein-isothiocyanate as described in Kjellerup et al., 2017^6. Briefly, the cells was starved overnight in 50 mM KCl, pH 6.7 at 4 °C. The cell suspension (Final OD600 of 0.19) was mixed with 1.3 µg/ml dextran (40,000MW)-fluorescein-isothiocyanate, 1.5 % DMSO containing inhibitors and the assay initiated with the addition of 2 % D-(+)-glucose. The rate of media acidification was calculated based on the slope of the fluorescent drop in the first 12 minutes after glucose addition.

S. cerevisiae [2] = assay: Extracellular acidification assay; assay type: cell-based; details: Saccharomyces cerevisiae, mean ± SEM n = 3
Excerpt: as §2, §3

C. albicans cells = assay: Intracellular ATP determination; assay type: cell-based; details: compound at 20 µM, 30 minutes, mean ± SEM n = 5
Excerpt: as §2
C. albicans cells were transferred to 3 ml of YPD media and grown overnight at 30 °C and 150 rpm. The cells were pelleted at 2000 × g for 2 min. and washed in PBS (Sigma-Aldrich, catalog number 8537) twice before re-suspension to an OD600 of 0.1. Cell suspension (98 µL) and 2 µl compound in DMSO were incubated for 30 minutes at RT. Forty microliters of this suspension was then transferred to a black 96-well plate containing 40 µl BacTiterGlo reagent (Promega, Madison, WI) and the plate was incubated for 15 minutes in the dark at room temperature. Luminescence was read on a SpectraMax X5 (Molecular Devices, Sunnyvale, CA) plate reader with 10 s shake and 0.5 s integration time. A standard curve containing 10, 100 and 1000 nM ATP was prepared for every experiment.

T1 sequence (P05030 whole entry, canonical isoform): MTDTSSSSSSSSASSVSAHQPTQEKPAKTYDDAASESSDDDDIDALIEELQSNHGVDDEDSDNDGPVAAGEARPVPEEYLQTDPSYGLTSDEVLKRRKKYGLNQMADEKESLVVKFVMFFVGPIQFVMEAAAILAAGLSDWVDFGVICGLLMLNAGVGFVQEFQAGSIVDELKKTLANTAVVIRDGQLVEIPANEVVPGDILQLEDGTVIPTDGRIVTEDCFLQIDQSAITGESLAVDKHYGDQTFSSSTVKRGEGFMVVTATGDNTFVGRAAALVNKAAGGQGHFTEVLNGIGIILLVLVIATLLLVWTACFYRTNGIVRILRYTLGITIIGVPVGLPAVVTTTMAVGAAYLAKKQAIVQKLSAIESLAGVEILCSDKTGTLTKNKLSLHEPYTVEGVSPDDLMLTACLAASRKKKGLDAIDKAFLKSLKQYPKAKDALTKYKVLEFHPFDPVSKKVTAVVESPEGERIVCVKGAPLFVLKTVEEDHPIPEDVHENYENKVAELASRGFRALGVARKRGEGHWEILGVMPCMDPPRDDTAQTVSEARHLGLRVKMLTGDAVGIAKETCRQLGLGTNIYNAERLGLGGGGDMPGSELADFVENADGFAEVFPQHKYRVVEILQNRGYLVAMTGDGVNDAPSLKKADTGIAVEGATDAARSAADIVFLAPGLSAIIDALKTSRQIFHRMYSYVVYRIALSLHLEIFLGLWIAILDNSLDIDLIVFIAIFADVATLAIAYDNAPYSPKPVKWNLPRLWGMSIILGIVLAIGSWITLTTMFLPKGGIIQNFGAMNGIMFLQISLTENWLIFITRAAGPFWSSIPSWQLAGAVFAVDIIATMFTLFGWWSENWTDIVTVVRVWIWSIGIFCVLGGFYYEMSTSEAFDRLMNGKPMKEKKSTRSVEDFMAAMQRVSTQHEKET

Row | Structure (SMILES) | MIC (C. albicans (ATCC 90028); ATCC 90028, library hits) | MIC (S. cerevisiae [1]) | IC50 (S. cerevisiae H^+-ATPase) | MIC (C. albicans (ATCC 90028); Candida albicans, ATCC90028, ATCC 90028, library hits) | IC50 (C. albicans) | IC50 (S. cerevisiae [2]) | iATP (C. albicans cells)
1 | Oc1ccccc1Cn1c2ccccc2c2ccccc21 [Compound 3] | 100 µM (≈ 27.3 µg/mL) | 50 µM (≈ 13.7 µg/mL) | 9.7 ± 0.6 µM | – | – | – | –
2 | CC(C)CCOCC(O)Cn1c2ccccc2c2ccccc21 (stereo not shown) [Compound 2] | >200 µM | 50 µM (≈ 15.6 µg/mL) | 5.5 ± 0.7 µM | – | – | – | –
3 | OC(CN1CCCCCC1)Cn1c2ccccc2c2ccccc21 (stereo not shown) [Compound 1] | >200 µM | > 200 µM | 18.8 ± 7.3 µM | – | – | – | –
4 | OC(CN1CCCC1)Cn1c2ccc(Cl)cc2c2cc(Cl)ccc21 (stereo not shown) [Compound 4] | 30 µM (≈ 10.9 µg/mL) | 10 µM (≈ 3.63 µg/mL) | 17.3 ± 5.5 µM | ≥ 30 µM | – | – | –
5 | C[C@@H](c1ncncc1F)[C@](O)(Cn1cncn1)c1ccc(F)cc1F [Voriconazole, reference compound] | – | – | – | – | > 75 µM | > 75 µM | 37 ± 19 nM
